Measured values taken from US20110021543A1, “HETEROCYCLIC COMPOUNDS AND THEIR USE AS PESTICIDES” (priority 2007, published 2011).

How the values were obtained:
[1] = test system: Rhipicephalus sanguineus (dog tick); assay: Activity in vitro against Rhipicephalus sanguineus (dog tick), adult tick contact test in 96-well plate; settings: at 640 ppm, 10 minutes contact, incubated 7 days at 28° C. and 80% relative humidity
Method: 1. Activity In Vitro Against Rhipicephalus sanguineus (Dog Tick).
A clean adult tick population is used to seed a suitably formatted 96-well plate containing the test substances to be evaluated for antiparasitic activity. Each compound is tested by serial dilution in order to determine its minimal effective dose (MED). Ticks are left in contact with the test compound for 10 minutes and are then incubated at 28° C. and 80% relative humidity for 7 days, during which the test compound's effect is monitored. Acaricidal activity is confirmed if adult ticks are dead.

[2] = test system: Ctenocephalides felis (cat flea); assay: Activity in vitro against Ctenocephalides felis (cat flea), artificial blood feeding system; settings: at 100 ppm; adult fleas fed on treated blood for 24 hours
Method: 2. Activity In Vitro Against Ctenocephalides felis (Cat Flea). A mixed adult population of fleas is placed in a suitably formatted 96-well plate allowing fleas to access and feed on treated blood via an artificial feeding system. Each compound is tested by serial dilution in order to determine its MED. Fleas are fed on treated blood for 24 hours, after which the compound's effect is recorded. Insecticidal activity is determined on the basis of the number of dead fleas recovered from the feeding system.

CC(O)(c1cn(-c2c(Cl)cc(C(F)(F)F)cc2Cl)c2cccnc12)C(F)(F)F (centres unmarked) [Compound 1.43, 2-[1-(2,6-Dichloro-4-trifluoromethyl-phenyl)-1H-pyrrolo[3,2-b]pyridin-3-yl]-1,1,1-trifluoro-propan-2-ol]
efficacy (acaricidal activity, dead adult ticks) [1]: more than 80%
efficacy (insecticidal activity, dead fleas) [2]: more than 80%
